This passage reports EC50, CC50 and solubility results from paper PMC6842543, “Antiparasitic effect of synthetic aromathecins on Leishmania infantum” (BMC Veterinary Research, 2019).

Molecules are shown by their SMILES. Values after ≈ are worked out from the molar mass of the structure shown. Where two headings read alike, the source gives them in different places. Where only a bound is given, the exact number is not on record here.

Data set [1] deals with L. infantum promastigotes. As to the kind of experiment: In vitro iRFP L. infantum promastigotes viability assay (infrared fluorescence). The format is cell-based, Leishmania infantum. The conditions noted are these: 72 h, read-out: EC50 L. infantum promastigotes. How it is done:
(§1) Two series of aromathecins (Table 1) have been tested against both stages of L. infantum, free-living promastigotes and intracellular amastigotes harbored in mouse splenic cells. Experiments were carried out using a genetically modified L. infantum strain that constitutively produces the iRFP protein. This makes it possible to evaluate the viability of parasites measuring the fluorescence emitted at 708 nm.
The antiparasitic activity of the compounds was assessed on the genetically modified iRFP L. infantum strain, which constitutively produces the infrared fluorescent protein (iRFP) when cells are viable. iRFP L. infantum was grown at 26 °C in M-199 medium (Gibco) supplemented with 25 mM HEPES pH 7.2, 0.1 mM adenine, 0.0005% (w/v) hemin, 2 μg/mL biopterin, 0.0001% (w/v) biotin, 10% (v/v) heat-inactivated fetal bovine serum (FBS) and an antibiotic cocktail comprising 50 U/mL penicillin and 50 μg/mL streptomycin.
(§2) The viability of cultured parasites in the presence of different concentrations of aromathecins was determined by measuring the reduction of infrared fluorescence emitted by free-living promastigotes/amastigotes with respect to negative controls of each form of the parasite treated with DMSO (up to 0.1% final concentration) as a vehicle. […] After 72 h incubation at 26 °C, the infrared fluorescence emitted at 708 nm by viable promastigotes/amastigotes was measured in an Odyssey (Li-Cor) infrared imaging system. Similarly, the cytotoxic effect (CC50) of aromathecins on uninfected splenic explants from BALB/c mice (cells that naturally harbor the amastigote stage) was measured by the Alamar Blue (Invitrogen) assay. The selectivity index (SI) was determined as the relationship between the CC50 value and the EC50 value for amastigotes. CC50 and EC50 were calculated by nonlinear analysis using the Sigma-Plot 10.0 statistical package. The aromathecins were dissolved in DMSO and stored at − 20 °C before their use as fresh aliquots.

In another data set the test system is Murine Splenocytes. Description: Cytotoxicity on uninfected splenic explants (Alamar Blue). It is filed as cell-based, BALB/c mice. Here is the method:
(§3) The spleens were washed with cold phosphate-buffered saline (PBS), cut in small pieces and incubated for 20 min with 5 mL of 2 mg/mL collagenase D (Sigma) prepared in buffer (10 mM HEPES, pH 7.4, 150 mM NaCl, 5 mM KCl, 1 mM MgCl2 and 1.8 mM CaCl2). After that, the cell suspension obtained was passed through a 100 μm cell strainer, harvested by centrifugation (500×g for 7 min at 4 °C), washed twice with PBS, and cultured at 37 °C under 5% CO2 atmosphere in RPMI medium (Gibco) supplemented with 10 mM HEPES, 1 mM sodium pyruvate, 1xRPMI 1640 vitamin mix, 10% (v/v) FBS, 50 U/mL penicillin and 50 μg/mL streptomycin (Calvo-Álvarez et al., 2015).
as §2
On the technique in general: Alamar Blue is a resazurin reagent that responds to reducing activity.

In another data set the test system is L. infantum amastigotes. Description: Ex vivo murine splenic explant culture with intramacrophagic iRFP L. infantum amastigotes. The format is cell-based, Leishmania infantum. The conditions noted are these: 72 h, read-out: EC50 L. infantum amastigotes. How it is done: as §1
Primary splenocyte cultures containing intramacrophagic amastigotes were obtained from dissected spleens of female BALB/c mice infected intraperitoneally with 1.5 × 10^9 metacyclic iRFP L. infantum promastigotes, 5 weeks before their sacrifice. Mice were obtained commercially (Janvier-Labs). Animals were housed in specific-pathogen free facilities and they were euthanized by cervical dislocation without anesthesia. These protocols were approved by the Animal Care Committee of University of Leon (project license SAF2017–83575-R), which complies with European Union Legislation (2010/63/UE) and Spanish Act (RD 53/2013).
as §3, §2

A short description of data set [2]: Solubility limit in culture medium. It is filed as physicochemical. The conditions noted are these: M199 culture medium. Here is the method: The CPT resistant strain used in this work was generated exposing L. infantum promastigotes to increased concentrations of CPT, from 0.1 to the solubility limit of the compound, 20 μM in the case of CPT. Parasites were grown at 26 °C in M199 medium supplemented as described previously, each culture being inoculated at an initial density of 10^6 cells/mL. The promastigotes cultured in liquid medium in the presence of 20 μM CPT, were plated on semisolid M199 medium containing 20 μM CTP in order to select a single colony.

Data set [3] in a line: Cytotoxicity on uninfected splenic explants (Alamar Blue). The format is cell-based, BALB/c mice. The conditions noted are these: mouse; uninfected splenic explants from BALB/c mice, Alamar Blue; read-out: CC50 Murine Splenocytes. How it is done:
as §3, §2

Broadly, the EC50 is the concentration that produces a half-maximal response. A word on the CC50: it is the concentration giving 50% cytotoxicity. With `C[C@@H]1[C@H](O)[C@@H](C)/C=C/C=C/C=C/C=C/C=C/C=C/C=C/[C@H](O[C@@H]2O[C@H](C)[C@@H](O)[C@H](N)[C@@H]2O)C[C@@H]2O[C@](O)(C[C@@H](O)C[C@@H](O)[C@H](O)CC[C@@H](O)C[C@@H](O)CC(=O)O[C@H]1C)C[C@H](O)[C@H]2C(=O)O` [AMB, reference compound], the EC50 came out at 800 ± 100 nM in data set [1] (iRFP-L. infantum promastigotes, 26 °C, fluorescence at 708 nm, average of three experiments by duplicate) and 300 nM in the data set on L. infantum amastigotes (splenic-infecting amastigotes, ex vivo explants from infected BALB/c mice). This compound also showed a 50% cytotoxic concentration (CC50) with Murine Splenocytes greater than 20000 nM.

Usually solubility stands for the dissolved amount per volume that the medium holds. Higher therefore signals a readily soluble substance. In the case of `CC[C@@]1(O)C(=O)OCc2c1cc1n(c2=O)Cc2cc3ccccc3nc2-1` [CPT, Camptothecin, reference compound], the concentration in solution in data set [2] (solubility) came to 20 µM (≈ 6.97 µg/mL). In addition, the EC50 in data set [1] (Leishmania infantum) was 1120 ± 130 nM; in the data set on L. infantum amastigotes (Leishmania infantum), 30 ± 10 nM. Also, the CC50 at 72 h in data set [3] was found to be 620 ± 10 nM.
